Reference: patent publication US20240209028A1, “CNP COMPOUNDS” (priority 2022, published 2024)
Converted amounts (≈) assume the structure as drawn. Read-outs that look alike come from different tables or passages of the source. Starred links: 1 amine or outer side, 2 acyl side, 3 side chain; linkers in the order of their positions; H or OH if unused. Positions of bridges follow the written chain, without caps; N, C: chain ends. Residues, ends and D or L forms follow the SMILES beside them. *: point of attachment. C18 diacid = O=C(O)CCCCCCCCCCCCCCCCC(=O)*; γGlu = O=C(O)[C@H](CCC(=O)[*:2])N[*:1]; AEEA = NCCOCCOCC(=O)O

Columns and labels:
[1] = CNP local tolerance study in LYD pigs (s.c. injection, histopathology); format: in vivo, domestic LYD pig; details: for assessment for human subcutaneous administration: based on pig local tolerance
Summary of the method: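 Domestic pigs dosed s.c. mid-back, 100 or 200 μl at approx. 4400 μM, in phosphate pH 6.5 or acetate pH 4.0 buffers with glycerol or propylene glycol; saline as negative control. Sites excised 4 or 5 days post injection, H&E sections graded on 5-level scale; necrosis used as marker.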

[2] = Solubility of CNP compounds at pH 4.0 and pH 6.5; format: physicochemical
Summary of the method: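 Supernatant peptide concentration was quantified by CAD after overnight room-temperature equilibration of incompletely dissolved samples. Nominal loading was ≥4000-5000 nmol/mL. Media were pH 4.0 sodium acetate 5 mM/glycerol 250 mM, or pH 6.5 sodium phosphate 8 mM/glycerol 23 mg/mL reached by stepwise NaOH addition.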

[3] = High-Molecular-Weight-Protein (HMWP) formation by SEC-UPLC; format: physicochemical; details: increase over two weeks at 37° C.
Summary of the method: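 Formulations at pH 4.0 or 6.5 incubated quiescently for two weeks at 37 °C; HMWP (peaks eluting before monomer, % of total peptide area) measured by SEC-UPLC, pH 2.4 mobile phase with 50% isopropanol, 50 °C, UV 215 nm. Value is HMWP increase, normalized to two weeks if needed.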

[4] = 5 days after subcutaneous injections in the pig
[5] = 8 mM sodium phosphate, 23 mg/mL glycerol, pH 6.5, room temperature, read-out: Solubility at pH 6.5
[6] = 5 mM sodium acetate, 250 mM glycerol, pH 4.0, room temperature, read-out: Solubility at pH 4.0

Row | Structure (SMILES) | local subcutaneous necrosis [1, 4] | assessment for human subcutaneous administration [1] | solubility [2, 5] [mM] | 2-Week HMWP formation at pH 6.5 (%), % relative to total peak area [3] [%] | solubility [2, 6] [mM] | 2-Week HMWP formation at pH 4.0 (%), % relative to total peak area [3] [%] | local subcutaneous necrosis ([1]; pig, in vivo, sc) | solubility ([2]; pH 4) [mM]
1 | CC[C@H](C)[C@@H]1NC(=O)[C@H](CCCNC(=N)N)NC(=O)[C@H](CC(=O)O)NC(=O)[C@H](CC(C)C)NC(=O)[C@@H]2CCCN2C(=O)[C@H](CC(C)C)NC(=O)CNC(=O)[C@H](Cc2ccccc2)NC(=O)[C@@H](NC(=O)CNC(=O)[C@H](CCC(N)=O)NC(=O)[C@H](CO)NC(=O)[C@H](CO)NC(=O)CNC(=O)[C@H](CCCCN)NC(=O)[C@H](CCCCN)NC(=O)[C@H](CCC(N)=O)NC(=O)[C@H](C)NC(=O)CNC(=O)[C@@H]2CCCN2C(=O)[C@H](C)NC(=O)[C@H](CCC(N)=O)NC(=O)CNC(=O)COCCOCCNC(=O)COCCOCCNC(=O)CC[C@H](NC(=O)CCCCCCCCCCCCCCCCC(=O)O)C(=O)O)CSSC[C@@H](C(=O)O)NC(=O)CNC(=O)[C@H](CC(C)C)NC(=O)CNC(=O)[C@H](CO)NC(=O)[C@H](CC(C)C)NC(=O)[C@H](CO)NC(=O)CNC1=O [compound 9384] ({C18 diacid-γGlu-AEEA-AEEA}-GQAPGAQKKGSSQGCFGLPLDRIGSLSGLGC-OH; disulfide 15-31; C-terminus assumed) | no to minimal | acceptable | 7.56 (≈ 28 mg/mL) | 1.5 |  |  |  | 
2 | CC[C@H](C)[C@@H]1NC(=O)[C@H](CCCNC(=N)N)NC(=O)[C@H](CC(=O)O)NC(=O)[C@H](CC(C)C)NC(=O)[C@@H]2CCCN2C(=O)[C@H](CC(C)C)NC(=O)CNC(=O)[C@H](Cc2ccccc2)NC(=O)[C@@H](NC(=O)CNC(=O)[C@H](CCC(N)=O)NC(=O)[C@H](CO)NC(=O)[C@H](CC(C)C)NC(=O)CNC(=O)[C@H](CCCCN)NC(=O)[C@H](CCCCN)NC(=O)[C@H](CCC(N)=O)NC(=O)[C@H](C)NC(=O)CNC(=O)[C@H](CCCCN)NC(=O)[C@H](Cc2ccc(O)cc2)NC(=O)[C@H](CCCCN)NC(=O)[C@H](CCCNC(=N)N)NC(=O)[C@H](C)NC(=O)COCCOCCNC(=O)COCCOCCNC(=O)COCCOCCNC(=O)COCCOCCNC(=O)CC[C@H](NC(=O)CC[C@H](NC(=O)CC[C@H](NC(=O)CC[C@H](NC(=O)CC[C@H](NC(=O)CCCCCCCCCCCCCCCCC(=O)O)C(=O)O)C(=O)O)C(=O)O)C(=O)O)C(=O)O)CSSC[C@@H](C(=O)O)NC(=O)CNC(=O)[C@H](CC(C)C)NC(=O)CNC(=O)[C@H](CO)NC(=O)[C@H](CC(C)C)NC(=O)[C@H](CO)NC(=O)CNC1=O [compound 9407] ({C18 diacid-γGlu-γGlu-γGlu-γGlu-γGlu-AEEA-AEEA-AEEA-AEEA}-ARKYKGAQKKGLSQGCFGLPLDRIGSLSGLGC-OH; disulfide 16-32) | no to minimal | acceptable | 6.69 (≈ 32.3 mg/mL) | 12 |  |  |  | 
3 | CC[C@H](C)[C@@H]1NC(=O)[C@H](CCCNC(=N)N)NC(=O)[C@H](CC(=O)O)NC(=O)[C@H](CC(C)C)NC(=O)[C@@H]2CCCN2C(=O)[C@H](CC(C)C)NC(=O)CNC(=O)[C@H](Cc2ccccc2)NC(=O)[C@@H](NC(=O)CNC(=O)[C@H](CCC(N)=O)NC(=O)[C@H](CO)NC(=O)CNC(=O)CNC(=O)[C@H](CCCCN)NC(=O)[C@H](CCCCN)NC(=O)[C@H](CCC(N)=O)NC(=O)[C@H](C)NC(=O)CNC(=O)[C@H](CCCCN)NC(=O)[C@H](Cc2ccc(O)cc2)NC(=O)COCCOCCNC(=O)COCCOCCNC(=O)COCCOCCNC(=O)COCCOCCNC(=O)CC[C@H](NC(=O)CC[C@H](NC(=O)CCCCCCCCCCCCCCCCC(=O)O)C(=O)O)C(=O)O)CSSC[C@@H](C(=O)O)NC(=O)CNC(=O)[C@H](CC(C)C)NC(=O)CNC(=O)[C@H](CO)NC(=O)[C@H](CC(C)C)NC(=O)[C@H](CO)NC(=O)CNC1=O [compound 9435] ({C18 diacid-γGlu-γGlu-AEEA-AEEA-AEEA-AEEA}-YKGAQKKGGSQGCFGLPLDRIGSLSGLGC-OH; disulfide 13-29; C-terminus assumed) | minimal to mild | acceptable | 2.36 (≈ 9.5 mg/mL) | 1.93 | 7.42 (≈ 29.9 mg/mL) | 1.07 |  | 
4 | CC[C@H](C)[C@@H]1NC(=O)[C@H](CCCNC(=N)N)NC(=O)[C@H](CC(=O)O)NC(=O)[C@H](CC(C)C)NC(=O)[C@@H]2CCCN2C(=O)[C@H](CC(C)C)NC(=O)CNC(=O)[C@H](Cc2ccccc2)NC(=O)[C@@H](NC(=O)CNC(=O)[C@H](CCC(N)=O)NC(=O)[C@H](CO)NC(=O)[C@H](CC(C)C)NC(=O)CNC(=O)[C@H](CCCCN)NC(=O)[C@H](CCCCN)NC(=O)[C@H](CCC(N)=O)NC(=O)[C@H](C)NC(=O)CNC(=O)[C@H](CCCCN)NC(=O)[C@H](Cc2ccc(O)cc2)NC(=O)COCCOCCNC(=O)COCCOCCNC(=O)COCCOCCNC(=O)COCCOCCNC(=O)CC[C@H](NC(=O)CC[C@H](NC(=O)CC[C@H](NC(=O)CCCCCCCCCCCCCCCCC(=O)O)C(=O)O)C(=O)O)C(=O)O)CSSC[C@@H](C(=O)O)NC(=O)CNC(=O)[C@H](CC(C)C)NC(=O)CNC(=O)[C@H](CO)NC(=O)[C@H](CC(C)C)NC(=O)[C@H](CO)NC(=O)CNC1=O [compound 9480] ({C18 diacid-γGlu-γGlu-γGlu-AEEA-AEEA-AEEA-AEEA}-YKGAQKKGLSQGCFGLPLDRIGSLSGLGC-OH; disulfide 13-29) | no | acceptable | 6.17 (≈ 26 mg/mL) | 2.65 | 0.023 (≈ 0.097 mg/mL) |  |  | 
5 | CC[C@H](C)[C@@H]1NC(=O)[C@H](CCCNC(=N)N)NC(=O)[C@H](CC(=O)O)NC(=O)[C@H](CC(C)C)NC(=O)[C@@H]2CCCN2C(=O)[C@H](CC(C)C)NC(=O)CNC(=O)[C@H](Cc2ccccc2)NC(=O)[C@@H](NC(=O)CNC(=O)[C@H](CO)NC(=O)[C@H](CO)NC(=O)[C@H](CC(C)C)NC(=O)CNC(=O)[C@H](CCCCN)NC(=O)[C@H](CCCCN)NC(=O)[C@H](CCC(N)=O)NC(=O)[C@H](C)NC(=O)CNC(=O)[C@H](CCCCN)NC(=O)[C@H](Cc2ccc(O)cc2)NC(=O)[C@H](CCCCN)NC(=O)[C@H](CCCNC(=N)N)NC(=O)[C@H](C)NC(=O)[C@H](CCC(N)=O)NC(=O)[C@@H]2CCCN2C(=O)[C@H](Cc2c[nH]cn2)NC(=O)[C@H](CCC(=O)O)NC(=O)[C@H](CCC(N)=O)NC(=O)CC[C@H](NC(=O)CC[C@H](NC(=O)CC[C@H](NC(=O)CC[C@H](NC(=O)CC[C@H](NC(=O)CCCCCCCCCCCCCCCCC(=O)O)C(=O)O)C(=O)O)C(=O)O)C(=O)O)C(=O)O)CSSC[C@@H](C(=O)O)NC(=O)CNC(=O)[C@H](CC(C)C)NC(=O)CNC(=O)[C@H](CO)NC(=O)[C@H](CC(C)C)NC(=O)[C@H](CO)NC(=O)CNC1=O [compound 9482] ({C18 diacid-γGlu-γGlu-γGlu-γGlu-γGlu}-QEHPQARKYKGAQKKGLSSGCFGLPLDRIGSLSGLGC-OH; disulfide 21-37) | no | acceptable | 5.32 (≈ 25.7 mg/mL) | 1.96 | 0.099 (≈ 0.478 mg/mL) |  |  | 
6 | CC[C@H](C)[C@@H]1NC(=O)[C@H](CCCNC(=N)N)NC(=O)[C@H](CCC(=O)O)NC(=O)[C@H](CC(C)C)NC(=O)[C@@H]2CCCN2C(=O)[C@H](CC(C)C)NC(=O)CNC(=O)[C@H](Cc2ccccc2)NC(=O)[C@@H](NC(=O)CNC(=O)[C@H](CO)NC(=O)[C@H](CO)NC(=O)[C@H](CC(C)C)NC(=O)CNC(=O)[C@H](CCCCN)NC(=O)[C@H](CCCCN)NC(=O)[C@H](CCC(N)=O)NC(=O)[C@H](C)NC(=O)CNC(=O)[C@H](CCCCN)NC(=O)[C@H](Cc2ccc(O)cc2)NC(=O)[C@H](CCCCN)NC(=O)[C@H](CCCNC(=N)N)NC(=O)[C@H](C)NC(=O)[C@H](CCC(N)=O)NC(=O)[C@@H]2CCCN2C(=O)[C@H](Cc2c[nH]cn2)NC(=O)[C@H](CCC(=O)O)NC(=O)[C@H](CCC(N)=O)NC(=O)CC[C@H](NC(=O)CC[C@H](NC(=O)CC[C@H](NC(=O)CC[C@H](NC(=O)CCCCCCCCCCCCCCCCC(=O)O)C(=O)O)C(=O)O)C(=O)O)C(=O)O)CSSC[C@@H](C(=O)O)NC(=O)CNC(=O)[C@H](CC(C)C)NC(=O)CNC(=O)[C@H](CO)NC(=O)[C@H](CC(C)C)NC(=O)[C@H](CO)NC(=O)CNC1=O [compound 9483] ({C18 diacid-γGlu-γGlu-γGlu-γGlu}-QEHPQARKYKGAQKKGLSSGCFGLPLERIGSLSGLGC-OH; disulfide 21-37) |  |  |  |  |  | 3.0 | no to moderate | 4.96 (≈ 23.4 mg/mL)
